This note sets out measurements from patent US20220071971A1, “MACROCYCLIC COMPOUNDS AND THEIR USE IN THE TREATMENT OF DISEASE” (NOVARTIS AG, priority 2018, published 2022).

Read-outs that look alike come from different tables or passages of the source.

Data set [1] concerns the target T1, delF508-CFTR (Homo sapiens, UniProt P13569, DEL508-508).
T1 construct: expressed in transfected cells
The data set is described as follows: Measurement of delF508-CFTR-HRP surface expression in CFBE41o- cells. The format is cell-based. The conditions noted are these: for EC50: HRP-tagged delF508-CFTR surface expression, CFBE41o- cells, 24 h with compound, 10-point curve, highest concentration 10 μM; for Emax: CFBE41o-, read-out: DelF508-CFTR-HRP Amax %. In short, it runs like this: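 CFBE41o- cells stably expressing delF508-CFTR with HRP in the fourth extracellular loop, induced 48 h with 500 ng/mL doxycycline, then exposed to compound (10-point, 3-fold, top 10 μM, ≤0.5% DMSO) for 24 h at 37° C. Surface HRP read by luminescence with cell-impermeant substrate; EC50 by logistic fit, triplicates, efficacy relative to reference corrector.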

Data set [2] has as its target T1, delF508-CFTR. The data set is described as follows: Measurement of delF508-CFTR functional activity in primary human bronchial epithelial cells (HBECs) using MTECC-24 assay. The format is cell-based. The settings on record: for EC50: primary human delF508-CFTR bronchial epithelial cells, 24 hr compound treatment, equivalent short circuit current, forskolin and potentiator, mean of at least two replicates, read-out: MTECC24 CFHBEC EC50; for MTECC24 CFHBEC Amax %: test compound (24 h) with potentiator (S)-3-amino-6-methoxy-N-(3,3,3-trifluoro-2-hydroxy-2-methylpropyl)-5-(trifluoromethyl)picolinamide, relative to 2 μM 3-(6-(1-(2,2-difluorobenzo[d][1,3]dioxol-5-yl)cyclopropane-1-carboxamido)-3-methylpyridin-2-yl)benzoic acid plus 0.5 μM N-(2,4-di-tert-butyl-5-hydroxyphenyl)-4-oxo-1,4-dihydroquinoline-3-carboxamide. From the text:
Measurement of delF508-CFTR Functional Activity in Primary Human Bronchial Epithelial Cells (HBECs) Using Multi-Transepithelial Clamp Circuit (MTECC-24) Assay
This assay measures the functional activity of the CFTR channel (Chloride ion transport) in patient derived primary human bronchial epithilial cells with forskolin activation and in the presence of the CFTR corrector/potentiator combination.
Primary human delF508-CFTR bronchial epithelial cells were and cultured according to previously established methods (Neuberger, T. et, al., Methods in Molecular Biology, 2011, 741, pp 39-54). Briefly, before thawing the HBEC cells, T25 flasks were coated with 2 mL of 3T3 conditioned media (MTI-GlobalStem, Cat #GSM9100) for at least 12 hours in 37° C. CO2 incubator. 1.7×10^5 cells were seeded into one T25 flask with 5 mL of HBE growth media (BEBM with supplements (Lonza, Cat #CC-3170) with 10 nM of retinoic acid (Sigma, Cat #R-2625) and 1% of PSA (Hyclone, Cat #SV30079.01). Media was changed every day till the cells were 100% confluent. Cells were seeded into T75 flasks (pre-coated with 5 mL of 3T3 conditioned media for more than 12 hrs) at 4.95×10^5 cells/T75 flask in 15 mL of HBE growth media. Flasks were fed everyday with fresh HBE growth media until the cells were confluent. 24-well transwell plates (Corning, Cat #3378) were coated with 3T3 conditioned media (70 μL on top of the filter, 350 μL to the bottom of the well) overnight in the 37° C. CO2 incubator. Cells were seeded in the pre-coated 24-well transwell plates at 1.7×10^5 cell/well with 700 μL of growth media at the bottom of the well and 200 μL of growth media at the top of the filter. After 24 hrs, cells were switched into HBE differentiation media ((DMEM/F12 (Gibco, Cat #11330-032) supplement with 2% Ultroser G (Pall, Cat #15950-017), 2% of Fetal Clone II (Hyclone, Cat #SH30066.03), 0.25% Bovine Brain Extract (Lonza, Cat #CC-4098), 1% of PSA, 2.5 μg/mL of Insulin (Sigma, Cat #19278), 20 nM of Hydrocortisone (Sigma, Cat #H0888), 500 nM of Triiodothyronine (Sigma, Cat #T6397), 2.5 μg/mL of Transferrin (Sigma, Cat #T8158), 250 nM of Ethanolamine (Sigma, Cat #E0135), 1.5 μM of Epinephrine (Sigma, Cat #E4250), 250 nM of Phosphoethanolamine (Sigma, Cat #P0503), 10 nM of retinoic acid)) with 200 μL on top of the filter (apical side) and 700 μL at the bottom of the well (basolateral side). Cells were fed every other day with the differentiation media. After 4 days, cells were exposed to air/liquid interface. Then cells were fed every other day for 4 weeks before fully differentiated.
Cells were washed with 3 mM DTT in PBS at 70 ul/well for 30 min at 37° C. 6 days before the assay. 3 days before the assay, cells were washed again with PBS at 70 ul/well for 30 min at 37° C. Then cells were treated with compound for 24 hrs before the assay.
Following 24 hr treatment with compound, cells were transferred into plates containing 750 ul of assay media on basolateral side and 250 ul on apical side (Assay medium: F-12 Coon's modified, 20 mM HEPES pH7.4 with TRIS Base, No FCS or bicarbonate). The plates wee then transferred to the heated plate compartments (basolateral buffer temperature ˜36.5° C. on the heating block) of the TECC24 system for 45 mins prior to measurements.
Modulators were added sequentially as follows while the TECC24 instrument recorded the equivalent short circuit current (Ieq):
Prior to dilution into assay medium the stocks were as follows: Benzamil stock: 10 mM in DMSO
Forskolin Stock: 50 mM in DMSO
N-(2,4-di-tert-butyl-5-hydroxyphenyl)-1,4-dihydro-4-oxoquinoline-3-carboxamide: 50 mM in DMSO (S)-3-amino-6-methoxy-N-(3,3,3-trifluoro-2-hydroxy-2-methylpropyl)-5-(trifluoromethyl)picolinamide: 50 mM stock 100% DMSO Bumetanide stock: 20 mM in EtOH
The data was normalized using the median signal from wells treated with 0.1% DMSO as a baseline. Curve fitting and EC50 calculations were performed using the following equation: […]

The mark [3] stands for this setting: efficacy relative to reference compound 3-(6-(1-(2,2-difluorobenzo[d][1,3]dioxol-5-yl)cyclopropane-1-carboxamido)-3-methylpyridin-2-yl)benzoic acid.

T1 sequence (P13569 with tags, fused parts or gaps DEL508-508): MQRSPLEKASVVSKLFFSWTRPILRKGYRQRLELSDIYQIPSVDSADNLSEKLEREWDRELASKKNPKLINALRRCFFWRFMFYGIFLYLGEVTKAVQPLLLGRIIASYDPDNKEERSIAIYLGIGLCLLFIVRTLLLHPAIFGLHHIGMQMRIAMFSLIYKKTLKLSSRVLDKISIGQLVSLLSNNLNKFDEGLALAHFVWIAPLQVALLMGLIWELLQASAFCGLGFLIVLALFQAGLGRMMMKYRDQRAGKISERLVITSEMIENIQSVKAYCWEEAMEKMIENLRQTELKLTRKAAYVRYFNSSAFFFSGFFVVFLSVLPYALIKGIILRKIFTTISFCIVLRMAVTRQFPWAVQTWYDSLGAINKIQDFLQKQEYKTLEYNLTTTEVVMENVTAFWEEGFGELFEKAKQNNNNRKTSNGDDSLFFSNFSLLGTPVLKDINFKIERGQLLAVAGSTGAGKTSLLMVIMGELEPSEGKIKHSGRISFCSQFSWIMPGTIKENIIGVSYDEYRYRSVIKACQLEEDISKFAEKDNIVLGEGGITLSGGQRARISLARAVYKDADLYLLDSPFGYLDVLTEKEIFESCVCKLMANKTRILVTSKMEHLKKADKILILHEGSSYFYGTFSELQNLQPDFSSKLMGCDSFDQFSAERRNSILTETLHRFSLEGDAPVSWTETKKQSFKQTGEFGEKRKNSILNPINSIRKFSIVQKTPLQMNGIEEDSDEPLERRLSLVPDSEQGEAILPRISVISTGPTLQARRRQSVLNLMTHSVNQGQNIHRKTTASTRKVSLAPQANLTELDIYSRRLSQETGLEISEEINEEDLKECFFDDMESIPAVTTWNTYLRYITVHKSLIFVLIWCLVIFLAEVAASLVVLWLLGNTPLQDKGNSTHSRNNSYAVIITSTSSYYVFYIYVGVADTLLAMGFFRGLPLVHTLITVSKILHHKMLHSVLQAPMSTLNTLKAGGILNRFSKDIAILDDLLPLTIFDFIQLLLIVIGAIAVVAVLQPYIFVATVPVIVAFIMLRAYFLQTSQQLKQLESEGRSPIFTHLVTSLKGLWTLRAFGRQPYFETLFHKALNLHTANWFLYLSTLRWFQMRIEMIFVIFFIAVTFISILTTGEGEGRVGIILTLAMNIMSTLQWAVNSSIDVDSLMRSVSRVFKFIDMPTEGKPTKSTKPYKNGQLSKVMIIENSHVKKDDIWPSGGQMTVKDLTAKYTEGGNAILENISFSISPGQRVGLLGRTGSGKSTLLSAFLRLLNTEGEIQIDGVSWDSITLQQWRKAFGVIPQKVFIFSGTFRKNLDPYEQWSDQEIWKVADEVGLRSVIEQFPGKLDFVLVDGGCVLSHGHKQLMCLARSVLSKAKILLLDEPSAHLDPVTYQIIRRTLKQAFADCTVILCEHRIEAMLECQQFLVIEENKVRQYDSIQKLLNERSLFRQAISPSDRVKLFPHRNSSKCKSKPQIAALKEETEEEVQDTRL

As usually defined, the EC50 is the concentration that produces a half-maximal response. “3-(4,4-dioxido-2^3-(trifluoromethyl)-9-oxa-4-thia-3,6-diaza-2,5(2,6)-dipyridina-1(1,2)-benzenacyclododecaphane-6-yl)propanoic acid [Compound 98]”: at delF508-CFTR [1], the EC50 came to 2.03 µM. Moreover, the “DelF508-CFTR-HRP Amax %” value at delF508-CFTR [1] (setting [3]) was 719.0%. Moreover, on delF508-CFTR [2], the EC50 amounted to 0.1 µM and the “MTECC24 CFHBEC Amax %” value was 69.2%.

In turn, `O=S1(=O)Nc2ccc(C(F)(F)F)c(n2)-c2ccccc2C=CCCC(CCCO)Oc2cccc1n2` (stereo not drawn) displayed a ring closure, isolated yield (from C=CCCC(CCCO)Oc1cccc(S(=O)(=O)Nc2ccc(C(F)(F)F)c(-c3ccccc3C=C)n2)n1, rcm bond, 16-membered ring, Grubbs II (10 mol%), DCM, 3.68 mM, 45.0 °C) of 95%.

Where the note is “from C=CCCN(CCO)c1cccc(S(=O)(=O)Nc2ccc(C(F)(F)F)c(-c3ccccc3C=C)n2)n1, rcm bond, 15-membered ring, Grubbs II (two portions), DCM, 2.1 mM, 45.0 °C”, `O=S1(=O)Nc2ccc(C(F)(F)F)c(n2)-c2ccccc2C=CCCN(CCO)c2cccc1n2` returned a ring closure, isolated yield of 91%.

Turning to `O=C(O)CCN1CCCCCc2ccccc2-c2nc(ccc2Cl)NS(=O)(=O)c2cccc1n2` [Compound 89, 3-(2^3-chloro-4,4-dioxido-4-thia-3,6-diaza-2,5(2,6)-dipyridina-1(1,2)-benzenacycloundecaphane-6-yl)propanoic acid], on delF508-CFTR [1] (setting [3]), the Emax was 858%. For the same compound, on delF508-CFTR [1], the EC50 worked out at 1.18 µM. In addition, on delF508-CFTR [2], the EC50 is 0.0309 µM and the “MTECC24 CFHBEC Amax %” value came out at 56.7%.

“tert-butyl 4-(4,4-dioxido-2^3-(trifluoromethyl)-10-oxa-4-thia-3,6-diaza-2,5(2,6)-dipyridina-1(1,2)-benzenacycloundecaphane-6-yl)butanoate”: for the setting “snar bond, 16-membered ring, DIEA, NMP, 40.0 mM, 135.0 °C”, the ring closure, isolated yield worked out at 75%.

In the case of `O=C(O)CCN1CCCCCc2ccccc2-c2nc(ccc2C(F)(F)F)NS(=O)(=O)c2cccc1n2` [Compound 92, 3-(4,4-dioxido-2^3-(trifluoromethyl)-4-thia-3,6-diaza-2,5(2,6)-dipyridina-1(1,2)-benzenacycloundecaphane-6-yl)propanoic acid], the Emax on delF508-CFTR [1] (setting [3]) was 982%. Also, the EC50 is 0.694 µM on delF508-CFTR [1] and 0.0069 µM at delF508-CFTR [2]. Also, the “MTECC24 CFHBEC Amax %” value at delF508-CFTR [2] was found to be 90.0%.

Consider `O=S1(=O)Nc2ccc(C(F)(F)F)c(n2)-c2ccccc2CCCCCN(CCO)c2cccc1n2` [Compound 117, 6-(2-hydroxyethyl)-2^3-(trifluoromethyl)-4-thia-3,6-diaza-2,5(2,6)-dipyridina-1(1,2)-benzenacycloundecaphane 4,4-dioxide], for which the EC50 at delF508-CFTR [1] amounted to 0.391 µM. Also, at delF508-CFTR [2], the EC50 was 0.001 µM and the “MTECC24 CFHBEC Amax %” value is given as 213.1%.

With `CC(C)(CN1CCCCCCc2ccccc2-c2nc(ccc2C(F)(F)F)NS(=O)(=O)c2cccc1n2)C(=O)O` [Compound 99, 3-(4,4-dioxido-2^3-(trifluoromethyl)-4-thia-3,6-diaza-2,5(2,6)-dipyridina-1(1,2)-benzenacyclododecaphane-6-yl)-2,2-dimethylpropanoic acid], the EC50 on delF508-CFTR [1] came to 0.23 µM; on delF508-CFTR [2] it was 0.0008 µM. For the same compound, the “MTECC24 CFHBEC Amax %” value on delF508-CFTR [2] came out at 279.3%.

For `CC(C)(CN1CCCCCc2ccccc2-c2nc(ccc2C(F)(F)F)NS(=O)(=O)c2cccc1n2)C(=O)O` [Compound 100, 3-(4,4-dioxido-2^3-(trifluoromethyl)-4-thia-3,6-diaza-2,5(2,6)-dipyridina-1(1,2)-benzenacycloundecaphane-6-yl)-2,2-dimethylpropanoic acid], at delF508-CFTR [1], the EC50 was 0.351 µM. In addition, on delF508-CFTR [2], the EC50 was found to be 0.0043 µM and the “MTECC24 CFHBEC Amax %” value is listed as 175.8%.

With `O=C(O)CCCN1CCCCc2ccccc2-c2nc(ccc2C(F)(F)F)NS(=O)(=O)c2cccc1n2` [Compound 90, 4-(4,4-dioxido-2^3-(trifluoromethyl)-4-thia-3,6-diaza-2,5(2,6)-dipyridina-1(1,2)-benzenacyclodecaphane-6-yl)butanoic acid], the Emax on delF508-CFTR [1] (setting [3]) came out at 674%. Also, the values for the EC50 at delF508-CFTR [1] and at delF508-CFTR [2] were 0.919 µM and 0.0046 µM, respectively. On delF508-CFTR [2], the “MTECC24 CFHBEC Amax %” value is given as 123.2%.

In the case of `O=S1(=O)Nc2ccc(C(F)(F)F)c(n2)-c2ccccc2C=CCCCCN(CCCCCO)c2cccc1n2`, the ring closure, isolated yield (from C=CCCCCN(CCCCCO)c1cccc(S(=O)(=O)Nc2ccc(C(F)(F)F)c(-c3ccccc3C=C)n2)n1, rcm bond, 17-membered ring, Grubbs II (20 mol%), DCM (or DCE), 1.85 mM, 55.0 °C) is 94%.

In the case of `CC(C)(CO)CN1CCCCCc2ccccc2-c2nc(ccc2C(F)(F)F)NS(=O)(=O)c2cccc1n2` [Compound 27, 6-(3-hydroxy-2,2-dimethylpropyl)-2^3-(trifluoromethyl)-4-thia-3,6-diaza-2,5(2,6)-dipyridina-1(1,2)-benzenacycloundecaphane 4,4-dioxide], the Emax at delF508-CFTR [1] (setting [3]) was 829%. Moreover, at delF508-CFTR [1], the EC50 stood at 0.177 µM. Further, at delF508-CFTR [2], the EC50 was found to be 0.0031 µM and the “MTECC24 CFHBEC Amax %” value is reported as 132.0%.

Turning to `CC(C)(CO)CN1CCCCCCc2ccccc2-c2nc(ccc2C(F)(F)F)NS(=O)(=O)c2cccc1n2` [Compound 28, 6-(3-hydroxy-2,2-dimethylpropyl)-2^3-(trifluoromethyl)-4-thia-3,6-diaza-2,5(2,6)-dipyridina-1(1,2)-benzenacyclododecaphane 4,4-dioxide], the EC50 on delF508-CFTR [1] is 0.066 µM. At delF508-CFTR [2], the EC50 was found to be 0.0009 µM and the “MTECC24 CFHBEC Amax %” value is reported as 171.1%.
